US11779628B2, “Use of cell-permeable peptide inhibitors of the JNK signal transduction pathway for the treatment of various diseases” (Xigen Inflammation Ltd., priority 2014, dated 2023)

Legend:
[1] = test system: rats; experiment: Ocular MTD studies, sub-conjunctival administration; type: in vivo, rat
Description: Despite technical advances in ocular surgery, the physical trauma of this procedure continues to induce post-operative ocular inflammation warranting treatment. In ocular tissue, arachidonic acid is metabolized by cyclooxygenase (COX) to prostaglandins (PG) which are the most important lipid-derived mediators of inflammation. Surgical trauma causes a trigger of the arachidonic acid cascade which in turn generates PGs by activation of COX-1 and COX-2. Phospholipids in the cell membrane are the substrate for phospholipase A to generate arachidonic acid from which a family of chemically distinct PGs and leukotriens are produced. The ‘golden standard’ for the treatment of ocular inflammation are topical corticosteroids and/or Non-Steroidal Anti-inflammatory Drugs (NSAIDs). Side effects reported with (short-term) corticosteroid use include cataract formation, increased Intra Ocular Pressure (IOP), increased susceptibility to viral infections and retardation of the corneal epithelial and stromal wound healing. In addition, prolonged treatment with corticosteroids have been known to induce systemic side effects such as glucose impairment, hypertension, development of glaucoma, visual acuity defects, loss of visual field, and posterior subcapsular cataract formation. […]

[2] = Phase I pharmacokinetics after single iv infusion; conditions: human, in vivo
Method: The primary objective of the study was to assess the safety and tolerability of XG-102 following intravenous (iv) infusion of single escalating doses of XG-102 to healthy male volunteers. The secondary objective of the study was to assess the pharmacokinetics of XG-102 following iv infusion of single escalating doses of XG-102 to healthy male volunteers. Doses were administered as a 60 minute iv infusion. For control purposes, placebo iv infusion was administered to control subjects. This was a single-centre, randomized, double blind, placebo controlled, ascending single dose, sequential group study. […] Screening was performed in the 3-week period prior to dosing. Dosing occurred on Day 0 for each subject. […] Data for all subjects were included in the safety analyses; data for all subjects who received XG-102 were included in the pharmacokinetic analyses.

[3] = test system: Hep G2 human hepatocarcinoma tumor; experiment: Orthotopic HEP G2 human liver carcinoma, dose/response; type: in vivo, mice; conditions: 0.1, 1, 5 mg/kg/inj IV, Q4Dx4
Method: The objective of this study was to determine the antitumor activity of XG-102 (dose/response) in the model of SWISS Nude mice bearing the orthotopic Hep G2 human hepatocarcinoma tumor.
For XG-102 administration XG-102 was prepared at the concentration of 1 mg/ml with sterile water (WFI, Aguettant, France). Lt was then cliluted at the concentrations of 0.2 and 0.02 mg/ml with sterile water. All these steps were performed within one hour prior to injection to mice. XG-102 was injected at 0.1, 1 and 5 mg/kg/inj. Four injections were performed, each separated by four days (Q4Dx4).
Twenty four hours before tumor induction, 32 female SWISS Nude mice were irradiated with a γ-source (2.5 Gy, Co^60, INRA, Dijon, France). […]
Mice were monitored every day throughout the study for behaviour and survival. The body weight was monitored twice a week for all mice throughout the study. […]
At D67, 3 mice randomly selected per group during randomization were sacrificed for observation of macroscopic development. […] Histological sections were analyzed by a pathologist expert to determine the metastatic invasion in liver.
For the body weight analysis body weight curves of mice were drawn. Mean body weight change (MBWC): Average weight change of treated animals in grams (weight at day X minus weight at D10) was calculated.
Efficacy parameters were expressed as a percent (T/C %). […]

Question: For `CC(C)C[C@@H](NC(=O)[C@@H](Cc1ccccc1)NC(=O)[C@H]1CCCN1C(=O)[C@@H](CCC(N)=O)NC(=O)[C@H](NC(=O)[C@H]1CCCN1C(=O)[C@@H](CCCNC(=N)N)NC(=O)[C@@H](CO)NC(=O)[C@@H](CCC(N)=O)NC(=O)[C@H](N)CC(=O)O)C(C)C)C(=O)N[C@H](CC(N)=O)C(=O)N[C@H](CC(C)C)C(=O)N[C@@H](C(=O)N[C@@H](C(=O)N1CCC[C@@H]1C(=O)N[C@H](CCCNC(=N)N)C(=O)N[C@H](CCCCN)C(=O)N1CCC[C@@H]1C(=O)N[C@H](CCCNC(=N)N)C(=O)N1CCC[C@@H]1C(=O)N1CCC[C@@H]1C(=O)N[C@H](CCCNC(=N)N)C(=O)N[C@H](CCCNC(=N)N)C(=O)N[C@H](CCCNC(=N)N)C(=O)N[C@H](CCC(N)=O)C(=O)N[C@H](CCCNC(=N)N)C(=O)N[C@H](CCCNC(=N)N)C(=O)N[C@H](CCCCN)C(=O)N[C@H](CCCCN)C(=O)N[C@H](CCCNC(=N)N)C(=O)NCC(=O)O)[C@H](C)O)[C@H](C)O` [XG-102], which “No Observed Adverse Effect Level (NOAEL)” value [1] is on record?
Answer: The value was “around 20 μg”.

Question: What about the “dose proportionality of AUC0-last” value [2] of the same compound?
Answer: The value was “increases in a more than linear proportion with dose in the tested dose range”.

Question: What about the MRT ([2]; 80 ug/kg) of the same compound?
Answer: Its MRT is 1.02 (14.7) h.

Question: What about the body weight [3] of the same compound?
Answer: Its body weight is “no apparent differences occurred for the body weight”.
